Assay in all cases: NCI tumour cell line growth inhibition, 48 h
In test [1] the test system is CAKI-1 renal.
Test [2] concerns HCT-116 colon.
The subject of test [3] is HCT-15 colon.
The subject of test [4] is HL-60(TB) leukemia.
Test [5] concerns HOP-62 NSCLC.
For test [6], the system named is K-562 leukemia.
Test [7] relates to OVCAR-5 ovarian.
In test [8] the test system is T-47D breast.
Test [9] deals with TK-10 renal.
Test [10] has as its system MOLT-4 leukemia.

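Five compound concentrations were applied to cells in 96-well plates for 48 hours; endpoints were derived by simple linear interpolation of the resulting dose-response curve. Abbreviation: GI50, concentration required for 50% inhibition of growth. At the TGI there is no net growth.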

As to `O=C(O)C(F)(F)C(F)(F)C(F)(F)C(F)(F)C(=O)O`, the TGI in [1], in test [2], in [3], in [4], in test [5] and in test [6] was greater than 100 µM in each case. Also, the TGI in [7], in test [8] and in test [9] was greater than 100 µM throughout.

On to `CCSCC(=O)N1CCc2c([nH]c3ccccc23)C1=O`, for which the TGI in test [1], in test [2], in [3], in test [4], in test [5] and in test [6] was greater than 100 µM each time. The TGI in [10], in test [7], in [8] and in [9] was greater than 100 µM each time.

As for `N#Cc1ccc(/C=N/NC(=O)CSCC(=O)N/N=C/c2ccc(C#N)cc2)cc1`, the TGI in [1], in [2], in test [3], in test [4], in [5] and in test [6] was greater than 100 µM throughout. For the same molecule, the TGI in test [10], in test [7], in [8] and in [9] was greater than 100 µM each time.

For the molecule `COC(=O)C1=COC(C)C2C[n+]3ccc4c([nH]c5ccccc54)c3CC12` (configuration not stated), the TGI in test [1], in [2], in test [3], in test [4], in test [5] and in test [6] was greater than 100 µM each time. In addition, the TGI in test [10], in [7], in test [8] and in test [9] was greater than 100 µM throughout.

In the case of `COc1ccc(C[C@H]2NC(=O)/C=C/C[C@@H]([C@H](C)[C@H]3O[C@@H]3c3ccccc3)OC(=O)[C@H](CC(C)C)OC(=O)[C@H](C)CNC2=O)cc1`, the TGI in [1] was greater than 0.0001 µM; in test [2], greater than 0.0001 µM; in test [3], greater than 0.0001 µM; in test [4], 5.2e-05 µM; in test [5], greater than 7.45e-05 µM; in test [6], greater than 8.13e-05 µM. Besides, the TGI in test [10], in [7], in test [8] and in test [9] was greater than 0.0001 µM in each case.

With `Cc1ccc(S(=O)(=O)N(CC(O)c2ccccc2)c2ccccc2F)cc1` (configuration not stated), the TGI in test [1] was determined as 33.7 µM; in [2], 26.4 µM; in [3], 33 µM; in test [4] it was 9.13 µM; in [5], 33.8 µM; in test [6], 44.5 µM. The figures for the TGI in [7], in [8] and in test [9] were 41 µM, 40.7 µM and 45.8 µM, respectively.

On to `Fc1ccc(C2NC(=S)NC3=C2CCOc2c3ccc3ccccc23)cc1` (configuration not stated), for which the TGI is greater than 100 µM in test [1]; 30.1 µM in [2]; greater than 100 µM in [3]; greater than 100 µM in test [4]; greater than 100 µM in test [5]; greater than 100 µM in test [6]. Moreover, the TGI in test [10] is greater than 100 µM; in [7] it was greater than 100 µM; in test [8], 9.44 µM; in test [9], greater than 100 µM.

As to `O=C1OC(C2Cc3ccccc3C2=O)c2ccccc21` (configuration not stated), the TGI in [1], in [2], in test [3], in [4], in test [5] and in [6] was greater than 100 µM each time. The TGI in test [10], in test [7], in test [8] and in test [9] was greater than 100 µM throughout.

In the case of `O=C(O)CCC(C(=O)O)N1C(=O)c2ccccc2C1=O` (configuration not stated), the TGI in test [1], in test [2], in test [3], in test [4], in [5] and in test [6] was greater than 100 µM throughout. Besides, the TGI in test [7], in [8] and in test [9] was greater than 100 µM each time.

For `O=C(Nc1ccc(-n2cc(-c3ccncc3)c(-c3ccc(O)c(Cl)c3)n2)cc1)c1cc(Cl)cc(Cl)c1`, the GI50 in test [1] is 2.64 µM; in test [2], 1.57 µM; in test [3], 0.908 µM; in [4] it was 1.6 µM; in [5], 2.87 µM; in test [6] it was 1.02 µM. Also, the GI50 was 1.29 µM in test [10], greater than 32.5 µM in test [7], 18.6 µM in test [8] and 6.8 µM in test [9]. The TGI in test [1] was 28 µM; in [2] it was greater than 32.5 µM; in [3], greater than 32.5 µM; in [4], greater than 32.5 µM; in [5] it was greater than 32.5 µM; in test [6], greater than 32.5 µM. Moreover, the TGI in test [10], in test [7], in [8] and in test [9] was greater than 32.5 µM throughout.

Regarding `O=c1c2ncn(C3CCCCO3)c2n(-c2ccccc2)c(=S)n1-c1ccccc1` (configuration not stated), the TGI in test [1] is greater than 97.7 µM; in test [2], greater than 100 µM; in test [3] it was greater than 100 µM; in [4], greater than 100 µM; in [5] it was 29.9 µM; in [6], greater than 100 µM. The TGI in test [10] was greater than 100 µM; in test [7], greater than 76.5 µM; in test [8] it was greater than 77.3 µM; in test [9], 83 µM.

In the case of `C/C=C1/CN2[C@@H](C3=C[C@@H]4[C@@H]5N(C3=O)c3ccccc3[C@@]53CCN5C/C(=C/C)[C@@H]4C[C@H]53)C[C@@]34c5ccccc5N5C(=O)CC=C([C@H]1C[C@H]23)[C@H]54`, the TGI came to 15.7 µM in test [1]; 9.07 µM in [2]; 10.3 µM in test [3]; 2.2 µM in [4]; 17.5 µM in [5]; 50 µM in test [6]. In addition, the TGI in [10] was determined as 6.28 µM; in test [7] it was 15 µM; in test [8], 49.2 µM; in test [9], 15 µM.

These data come from PubChem BioAssay (NCI).
